Experimental data taken from patent US5843916A, “Cyclic amp analogues, individually and in pairs, to inhibit neoplastic cell growth” (priority 1994, dated 1998).
Where two headings read alike, the source gives them in different places.

Tests used:
[1] = test system: cells; assay: Growth inhibition by 8-Cl-AMP; assay type: cell-based; settings: as high as 100 μM
[2] = test system: p21 ras protein, MCF-7 cells; assay: Western blotting of p21 ras protein (Table 11, FIG. 7); assay type: cell-based, human
Protocol: Western blotting of p21 protein was performed as described below. […] V is cell lysate from Ha-MuSV-transformed NIH3T3 clone 13-3B-4. M, marker proteins of known molecular weight.
Each lane contained 100 micrograms of protein for SDS-PAGE.
Cellular proteins present in cell extracts were separated by 12% SDS-PAGE and transferred to nitrocellulose sheets in transfer buffer (25 mM Tris, 192 mM glycine, 20% methanol, pH 7.4). Nitrocellulose sheets were washed and first incubated with 3% bovine serum albumin in NTE-NP40 (50 mM Tris-HCl, pH 7.5, 150 mM NaCl, 2 mM EDTA, 0.1% Nonidet P-40) for three hours at 37° C. and then sequentially incubated with medium containing p21 monoclonal antiserum Y13-259 directed against the Ha-MuSV-encoded p21 for sixteen hours at 4° C., rabbit anti-rat IgG for 2.5 hours in an ice water bath, and 5×10^5 cpm/ml ^125 I-protein A for one hour in an ice water bath. The nitrocellulose sheets were air dried and exposed to Kodak XAR film for 12-36 hours at -20° C. Comparison of the resulting autoradiograms with others in which normal rat serum was substituted for p21 monoclonal antibody permitted identification of p21. To provide a reference p21, cell lysates were prepared from NIH 3T3 clone 13-3B-4 that had been transfected with HaMuSV DNA.
The levels of p21 protein are expressed relative to the p21 level in the untreated control cells which is set equal to 1.0 O.D.

[3] = test system: RI cAMP receptor protein, Molt-4 leukemic cells; assay: Photoaffinity labelling of RI cAMP receptor protein (FIG. 9A); assay type: cell-based, human; settings: three days; 8-Cl-cAMP 5 μM, DBcAMP 1 mM, 8-Cl-adenosine 5 μM
[4] = test system: c-myc protein, Molt-4 leukemic cells; assay: Western blotting of c-myc protein (FIG. 9B); assay type: cell-based, human; settings: three days; 8-Cl-cAMP 5 μM, DBcAMP 1 mM, 8-Cl-adenosine 5 μM
Protocol: The cells were grown in suspension culture in RPMI 1640 medium supplemented with 10% fetal bovine serum, penicillin (50 U/ml), streptomycin (500 μg/mL), 10 mM HEPES buffer, and extra glutamine. […] Surface antigen analysis of HL-60 cells was performed by flow cytometry using a panel of monoclonal antibodies reactive with either myeloid cells or monocytic cells. Terminal deoxynucleotidyl transferase (TdT) was assayed by an immunoperoxidase method using a TdT fluorescence kit. Western blotting of c-myc protein was performed using c-myc antibody 15206D11 (Scripps Clinic and Research Foundation, LaJolla, Calif.).
M, marker proteins of known molecular weight. […] The resulting supernatants were used as cell lysates. […] ND=nondetectable.

[5] = test system: LS-174T; assay: Cell cycle analysis by flow cytometry (Table 3); assay type: cell-based, human; settings: 5 μM; 3 days
Protocol: (§1) DNA histograms were generated on FACS II by using the DNA intercalating dye propidium iodide as described by Braylan et al. in Cytometry 2: 337-343, 1982. The percentage of cells in each cycle phase was calculated by using a PDP-11/34 computer and software as described by Neckers et al., Mol. Cell. Biol. 6: 4244-4250, 1986.
(§2) Breast (MCF-7, MDA-MB-231) and colon (LS-174T) cancer cells in log
(§3) phase (untreated control) and 3 days after treatment with 8-C1-cAMP
(§4) (10 μM), N^6 -benzyl-cAMP (35 μM), and 8-Cl-adenosine (5
(§5) were analyzed for DNA content by flow cytometric analysis as described
(§6) below. Similar results were obtained with other breast and colon cancer
^a The paired numbers were derived from two separate experiments.

[6] = test system: MCF-7; assay: Growth of MCF-7 cells (Tables 3, 11); assay type: cell-based; settings: Homo sapiens, MCF7, 72 h, Table 11; 8-Cl-cAMP 10 μM, 8-Cl-adenosine 5 μM, DBcAMP 500 μM; control 100
Protocol: (§7) All breast cancer cell lines were grown in IMEM supplemented with 10% fetal bovine serum, HEPES 20 mM, penicillin-streptomycin, and extra glutamine. Colon carcinoma cell lines were grown in EMEM supplemented with 10% FBS, EMEM, NEAA, HEPES 20 mM, extra glutamine, and penicillin-streptomycin. The cells were grown at 37° C. in humidified incubators in an atmosphere of 5% CO2.
(§8) For cell growth experiments, 2-3×10^5 cells/60 mm dish were seeded, and 24 hours later (Day 0), the medium was removed, and fresh medium and the additives were added then and every 48 hours thereafter. The compounds of the present invention were added using 100X concentrated stock solutions. At desired times, cell counts in duplicate were performed on a Coulter counter after harvesting the cells with gentle trypsinization.

[7] = test system: LS-174T colon cancer line; assay: Growth and release from growth inhibition (FIG. 3); assay type: cell-based, human; settings: 5 μM
Protocol: 1×10^5 cells/60 mm dish were seeded, and 24 hours later (Day 0), the medium was removed and fresh medium and additives were added then and every 48 hours thereafter. […] The triplicate cell count for each experimental point never varied by more than 10%.

[8] = test system: myc-K562; assay: Growth inhibition of leukemic cells (Table 12); assay type: cell-based; settings: Homo sapiens
[9] = test system: K-562; assay: Growth inhibition of leukemic cells (Table 12); assay type: cell-based; settings: Homo sapiens, K562
[10] = test system: HL-60 Cells; assay: Cell cycle kinetics of HL-60 cells (Table 17); assay type: cell-based, human; settings: 10 μM, 96 hours
Protocol: Briefly, cells were fixed in 70% ethanol and stored at 4° C. before analysis. Nuclear DNA was stained with propidium iodide, 50 μg/ml in phosphate-buffered saline (pH 7.4), for 30 minutes at room temperature. RNase was added to avoid double-helix RNA staining. The DNA content of cells was analyzed by a FACScan flow cytometer coupled with a Hewlett-Packard computer. Cell cycle data analysis was performed by a Cell-FIT program according to the method of Dean (Cell Tissue Kinet. 13: 299-308 (1980)) (Becton Dickinson Immunocytometry Systems). Pulse area versus pulse width gating was performed to exclude doublets from the G2 -M region. For each sample, 20,000 events were stored in list mode. Cell surface antigen analysis was performed by flow cytometry with FACScan using a panel of monoclonal antibodies reactive with either monocytic or myeloid cells.

[11] = test system: breast and colon cancer cells; assay: Effect on cell morphology (FIG. 2); assay type: cell-based, human
Text: The photographs were taken on Day 4, ×160.
Furthermore, the synergistic growth inhibitory effect of C-6 and C-8 analogue combinations was also reflected in the change in the cell morphology.

[12] = test system: MDA-MB-231; assay: Growth of MDA-MB-231 cells (Tables 3, 10); assay type: cell-based; settings: Homo sapiens, MDA-MB-231, 72 h, 3 days, control 100 (Table 3)
Protocol: as §7, §8

[13] = test system: breast (MCF-7) and colon (LS-174T) cancer cell lines; assay: Growth inhibition of breast and colon cancer cells (Table 1); assay type: cell-based, human; settings: Homo sapiens
Protocol: The compounds of the present invention were added using 100X concentrated stock solutions. At desired times, cell counts in duplicate were performed on a Coulter counter after harvesting the cells with gentle trypsinization. […] Cell counts were performed on each of three or more separate experiments, and the average values are expressed as percent growth inhibition as compared with untreated control cells. | ^a The values of percentage growth inhibition were determined from th | doseresponse curve experiments. Each value represents an average value an | range (in parentheses) obtained from three or more separate experiments. | The cell counts in duplicate were performed at day 3 and day 4 after two | treatments (day 0 and day 2) with analogs (seeding on day -1).

[14] = test system: four leukemic cell lines (HL-60, K-562, myc-K562, Molt-4); assay: Growth inhibition of leukemic cell lines; assay type: cell-based, human; settings: Homo sapiens; leukemic cell lines, range
[15] = test system: RI and RII cAMP receptor proteins, breast (MDA-MB-231) and colon (LS-174T) cancer cells; assay: cAMP receptor protein levels, breast and colon cancer cells (FIG. 6); assay type: cell-based, human
Protocol: (§9) Photoactivated incorporation of 8-N3 [^32 P] was performed as described below.
(§10) M is marker proteins of known molecular weight.
The incubations were carried out at 23° C. for 60 minutes in 96-well immunoplates. […] The gels were fixed, dried, and exposed to X-ray films overnight.

[16] = test system: RI and RII cAMP receptor proteins, LS-174T; assay: Photoaffinity labelling of cAMP receptor proteins (Table 10, FIG. 6); assay type: cell-based, human; settings: 3 days, 8-Cl and N^6-benzyl 10 μM, dibutyryl 1 mM
Protocol: as §9, §10
(§11) Each lane contained 50 micrograms protein for SDS-PAGE.
(§12) The incubations were carried out at 23° C. for 60 minutes in 96-well immunoplates. The reaction mixtures were then irradiated for 30 seconds at 254 nm, placing a Mineralite UVS-11 hand lamp directly onto the plate. The samples were mixed with 25 microliters of 3× sample buffer (3% SDS, 15% beta-mercaptoethanol, 30 mM Tris, 30% glycerol, 1% bromophenol blue saturated solution), boiled for 3 minutes, and centrifuged at 700 × g for five minutes. The samples containing 10-30 micrograms of protein were subjected to 0.05% SDS-12% PAGE. The gels were fixed, dried, and exposed to X-ray films overnight. The protein concentrations were determined by the method of Lowry et al., J. Biol. Chem. 193: 265-275, 1951, with bovine serum albumin as standard.
(§13) The levels of the receptor proteins are expressed relative to the RI level in the untreated control cells of MDA-MB-231 and LS-174T which are each set equal to 1.0 O.D.; the scale was expanded to differentiate the lower intensity bands.

[17] = test system: RI and RII cAMP receptor proteins, MDA-MB-231; assay: as above; assay type: cell-based, human; settings: 3 days, 8-Cl and N^6-benzyl 10 μM, dibutyryl 1 mM
Protocol: as §9, §10, §11, §12, §13

[18] = test system: MDA-MB-231; assay: Cell cycle analysis by flow cytometry (Table 3); assay type: cell-based, human; settings: 35 μM; 3 days
Protocol: as §1, §2, §3, §4, §5, §6

[19] = test system: HL-60; assay: Growth inhibition of leukemic cells (Table 12); assay type: cell-based; settings: Homo sapiens
[20] = test system: Molt-4; assay: Growth inhibition of leukemic cells (Table 12); assay type: cell-based, human; settings: Homo sapiens, MOLT-4; read-out: Inhibition of Growth IC50, Molt-4
[21] = test system: breast and colon cancer lines (MCF-7, T-47D, ZR-75-1, MCF-7ras, MDA-MB-231, BT-20, HBL-100, LS-174T, WiDr, HT-29); assay: Growth inhibition of breast and colon cancer lines (FIG. 1); assay type: cell-based, human; settings: densitometry text

Nc1ncnc2c1nc(Cl)n2[C@@H]1O[C@H](COP(=O)(O)O)[C@@H](O)[C@H]1O [8-Cl-AMP]
growth inhibition [1]: no appreciable growth inhibition

Nc1ncnc2c1nc(Cl)n2[C@@H]1O[C@H](CO)[C@@H](O)[C@H]1O [8-Cl-adenosine]
p21 (Relative Level) ([2]; 3 days, 8-Cl-cAMP 10 μM, 8-Cl-adenosine 5 μM, DBcAMP 500 μM, control = 1.0 O.D.): 1.0 ± 0.1
p21 level ([2]; three days): did not appreciably affect the p21 level
RI receptor protein level [3]: not observed
c-myc protein level [4]: not observed
cell cycle phase distribution [5]: appreciable increase of the cell population in G1 phase with a marked reduction in S-phase
activity at 5 µM [6]: 38%
cell growth after release from treatment [7]: did not resume their growth up to two weeks after the release from the treatment
cell growth during treatment [7]: marked reduction in cell growth and eventually stopped replicating within three to four days

O=P1(O)OC[C@H]2O[C@@H](n3cnc4c(NCc5ccccc5)ncnc43)[C@H](O)[C@@H]2O1 [N^6 -benzyl-cAMP]
IC50 [8]: 30 µM
IC50 [9]: 27 µM
% G2 M ([10]; control 8.3): 9.6%
% G0-G1 ([10]; control 45.7): 44.4%
% S ([10]; control 46): 46%
cell morphology ([11]; 0.5 μM alone, four days): did not induce a change in the cell morphology
cell morphology ([11]; 50 μM, three to four days): induced the morphological change
activity at 35 µM [12]: 45%
inhibition at 50 µM ([13]; 72 h, 50 μM, day 3, average (range), read-out: % Growth Inhibition, Day 3): 56%
inhibition at 50 µM ([13]; 96 h, 50 μM, day 4, average (range), read-out: % Growth Inhibition, Day 4): 70%
inhibition at 50 µM ([13]; 50 micromolar, read-out: growth inhibition): 30 to 70%
IC50 [14]: 10 to 30 µM
decrease in the RI level ([15]; densitometric tracings): 70-80%
increase in the ratio of RII to RI ([15]; densitometric tracings): two- to three-fold increase
RI and RII receptor levels ([15]; three days, FIG. 6): the cAMP receptor protein with a molecular weight of 52,000 increased appreciably with concomitant decrease of the 48,000 RI receptor protein
RII/RI [16]: 1.25
relative level of RI ([16]; control RI = 1.0 O.D.): 0.20 ± 0.02
relative level of RII ([16]; control RI = 1.0 O.D.): 0.25 ± 0.02
RII/RI [17]: 0.28
relative level of RI ([17]; control RI = 1.0 O.D.): 0.25 ± 0.03
relative level of RII ([17]; control RI = 1.0 O.D.): 0.07 ± 0.01
% Cell Population in G1 [18]: 60%
% Cell Population in G2M [18]: 15%
% Cell Population in S [18]: 25%
cell cycle phase distribution [18]: not appreciably different
IC50 [19]: 20 µM
IC50 [20]: 10 µM
growth inhibition of cancer lines [21]: 45-70%
